Laboratory results taken from patent US20150011740A1, “FLUORINE-CONTAINING WATER SOLUBLE PLATINUM COMPLEXES FOR TUMOR TREATMENT AND PROCESS OF PREPARING SAME” (GUDUI BIOPHARMA TECHNOLOGY INC., priority 2011, published 2015).
Where two headings read alike, the source gives them in different places.

Experiments:
L1210 tumor cells = experiment: Experiment-3: antitumor efficacy in L1210 tumor-bearing CDF1 mice (ILS); type: in vivo; settings: for Weight Changes: first day to seventh day
Protocol: In the following test, antitumor efficacy studies were performed using 8-9 weeks old female CDF1 mice, the average weight of the animal is 20-25 grams (The experimental animals were purchased from Vital River Laboratory Animal Technology Co. Ltd.). L1210 tumor cells (about 10^5 cells per mouse) were inoculated intraperitoneally. The fluorine-containing water-soluble platinum complexes were used to treat the tumor-bearing animals and the efficacy was compared with the clinical platinum antitumor drugs. […] Drugs were administered intraperitoneally on day 1 and day 4 after tumor cell transplantation. The number of experimental animals in each group was 6.
The increase in life span (ILS) is calculated as follows:
Wherein, St=the weighted median survival time of treated animals; Su=the weighted median survival time of untreated animals

[1] = background data of clinical drugs; cited from earlier work
[2] = Experiment-1: solubility in water at room temperature
physchem = settings: buffer, pH 7
[3] = Experiment-2: stability, half-life in phosphate buffer (PBS) pH 7 at room temperature; settings: phosphate buffer (PBS) pH 7, room temperature
[4] = buffer, pH 7
[5] = 1.25 mg/Kg i.p. day 1 and day 4

In the case of `N.N.O=C([O-])C1(C(=O)[O-])CCC1.[Pt+2]` [Carboplatin, carboplatin], the ILS (L1210 tumor cells; 20 mg/Kg i.p. day 1 and day 4) is reported as 10%, the “Survival Animals on Day 42” value (L1210 tumor cells; 20 mg/Kg i.p. day 1 and day 4) is reported as 0/6 and the “Weight Changes” value (L1210 tumor cells; 20 mg/Kg i.p. day 1 and day 4) is reported as “+0 g”. The ILS (L1210 tumor cells; 40 mg/Kg i.p. day 1 and day 4) was 24%, the “Survival Animals on Day 42” value (L1210 tumor cells; 40 mg/Kg i.p. day 1 and day 4) was 0/6 and the “Weight Changes” value (L1210 tumor cells; 40 mg/Kg i.p. day 1 and day 4) was -0.3 g. The ILS (L1210 tumor cells; 80 mg/Kg i.p. day 1 and day 4) was 55%, the “Survival Animals on Day 42” value (L1210 tumor cells; 80 mg/Kg i.p. day 1 and day 4) was 0/6 and the “Weight Changes” value (L1210 tumor cells; 80 mg/Kg i.p. day 1 and day 4) was -1.2 g. For the same molecule, the “Water Solubility” value [1] was 17.0 mg/mL and the solubility [2] was 17.0 mg/1 mL H2O.
In the case of `N.N.[Cl][Pt][Cl]` [Cisplatin, cisplatin], the ILS (L1210 tumor cells; [5]) is reported as 36%, the “Survival Animals on Day 42” value (L1210 tumor cells; [5]) is reported as 0/6 and the ILS (L1210 tumor cells; 2.5 mg/Kg i.p. day 1 and day 4) is reported as 100%. For the same molecule, the “Survival Animals on Day 42” value (L1210 tumor cells; 2.5 mg/Kg i.p. day 1 and day 4) was 0/6 and the “Survival Animals on Day 42” value (L1210 tumor cells; 5.0 mg/Kg i.p. day 1 and day 4) was 3/6.
With `[NH2][Pt]1([NH2])[O]C(=O)C(F)(CCOC2O[C@H](CO)[C@@H](O)[C@H](O)[C@H]2O)C(=O)[O]1` (stereo partly drawn) [Example 3, diamine Pt (II) (1-O-D-glucoside-propane-3-fluoro-3,3-dicarboxylate)] the half-life (physchem) was 52 h.
In the case of `O=C1[O][Pt]([NH]C2CC2)([NH]C2CC2)[O]C(=O)C1(F)CCOC1O[C@H](CO)[C@@H](O)[C@H](O)[C@H]1O` (stereo partly drawn) [Example 17, dicyclopropylamino platinum (II) (1-O-D-glucoside-propane-3-fluoro-3,3-dicarboxylate)], the half-life (physchem) is reported as 62 h.
`O=C1[O][Pt]2([NH][C@@H]3CCCC[C@H]3[NH]2)[O]C(=O)C1(F)COC1O[C@H](CO)[C@@H](O)[C@H](O)[C@H]1O` (stereo partly drawn) [Example 23, cis-[trans-(1R,2R)-diaminocyclohexane]platinum (II) (1-O-D-glucoside-ethane-2-fluoro-2,2-dicarboxylate)] showed a half-life (physchem) of 89 h.
For `[NH2][Pt]1([NH2])[O]C(=O)C(F)(COC2O[C@H](CO)[C@@H](O)[C@H](O)[C@H]2O)C(=O)[O]1` (stereo partly drawn) [Example 24, diamine platinum (II) (1-O-D-glucoside-ethane-2-fluoro-2,2-dicarboxylate)], the half-life (physchem) was 73 h.
Molecule `O=C1[O][Pt]2([NH][C@@H]3CCCC[C@H]3[NH]2)[O]C1=O` [Oxaliplatin, oxaliplatin] has a half-life [3] of 24 h.
In the case of “cis-[trans-(1R,2R)-diaminocyclohexane] Pt (II) (1-O-D-glucoside-propane-3-fluoro-3,3-dicarboxylate) [Example 1]”, the half-life [3] is reported as 44 h.
With “cis-[trans-(1R,2R)-diaminocyclohexane] Pt (II) (1-O-D-mannoside-propane-3-fluoro-3,3-dicarboxylate) [Example 9]” the half-life [4] was 48 h.
